Reference: patent US5116815A, “PF 1022 substance, method of treating helminthic parasitic infection and anthelmintic composition” (Meiji Seika Kaisha Ltd., priority 1989, dated 1992)
Several values for one entry are separate records, joined by “and”; a condition that tells them apart may be missing. Identical values can stand only once.

Tests used:
Format in all cases: in vivo
[1] = system: fourth stomachworms (Ostertaqia circumcincta) and small intestinal hairworms (Trichostrongylus colubriformis); experiment: Sheep digestive tract nematodes, mixed infection, EPG; conditions: mean of 6 animals; for EPG At autopsy: 7 days after administration; for EPG Before administration: baseline
Experimental: The PF 1022 substance was evaluated for its anthelmintic effect in sheep mixedly infected with fourth stomachworms (Ostertaqia circumcincta) and small intestinal hairworms (Trichostrongylus colubriformis) by administering it orally to 24 sheep artificially infected with said two worm species.
The infected sheep were divided into 4 groups of 6 animals, which were respectively given 1 mg/kg, 5 mg/kg, 10 mg/kg and 0 mg/kg (control) of the substance suspended in 0.5% CMC, via a stomach catheter. The observation items were the number of parasite eggs per gram of feces (EPG) before administration, the EPG 7 days after administration, and the number of worms remaining in the fourth stomach and that of worms remaining in the intestinal tract as found upon autopsy 7 days after administration.
Each numerical value given is the mean of 6 animals.

[2] = system: large intestinal roundworms (Ascaridia galli); experiment: Chicken large intestinal roundworm elimination test, single oral dose; conditions: chickens; for Mean % Elimination / % Elimination: 7 days; for Mean % Elimination / Mean % body weight gain: group of 3; for % Elimination / % Body weight gain: individual chicken; for Mean % body weight gain / % Body weight gain: after 7 days
Experimental: Chickens verified to be artificially infected with large intestinal roundworms (Ascaridia galli) by scatoscopy were used in groups of three animals. The PF 1022 substance was used at five levels of dose from 0.2 mg/kg to 3 mg/kg. A total of 18 chickens were used in 6 groups, inclusive of an untreated control group.
For administration, an amount of the PF 1022 substance exactly equal to the dose calculated on the basis of the body weight of each chicken was weighed and suspended in water containing carboxymethylcellulose (CMC), and the suspension was administered orally as a single dose using a stomach tube. After administration, the worms eliminated were counted daily for each chicken and, after 7 days, each chicken was sacrificed and autopsied and the worms remaining in the intestinal tract were counted. The percent elimination was calculated as follows: [formula] Furthermore, the body weight just prior to administration and the body weight after 7 days were measured for each chicken and the percent body weight gain was calculated as follows: [formula]

[3] = system: roundworms (Toxocara canis); experiment: Anthelmintic effect on canine roundworms; conditions: dog, single oral dose 5 mg/kg
Experimental: The PF 1022 substance was evaluated for its anthelmintic effect in dogs by orally administering it to dogs found to be infected with roundworms (Toxocara canis), hookworms (Ancylostoma caninum) and whipworms (Trichuris vulpisl), respectively, by scatoscopy.
The substance was orally administered once at the dose of 5 mg/kg to a dog infected with the roundworms or hookworms by admixing the substance with a small portion of the ordinary feed, and the worms eliminated and those remaining in the dog during 7 days following administration were counted.

[4] = system: strongyles (Strongylus spp.); experiment: Anthelmintic effect on equine strongyles; conditions: horse, oral 5 mg/kg Day 0 and 2.5 mg/kg Day 1
Experimental: The PF 1022 substance was evaluated for its anthelmintic effect in a horse found by scatoscopy to be infected with roundworms (Parascaris equorum) and strongyles (Strongylus spp.) by orally administering the substance thereto.
The PF 1022 substance was suspended in water and administered with a stomach catheter at 5 mg/kg on the first day and at 2.5 mg/kg on the second day. For both the roundworms and strongyles, parasite eggs in each gram of feces (EPG) as well as parasites eliminated were counted daily for one week following the first administration. For strongyles, the number of worms in 100 g of feces was determined.

[5] = single oral dose 0.2 mg/kg, 0.2 mg/kg
[6] = single oral dose 0.5 mg/kg, 0.5 mg/kg
[7] = single oral dose 1 mg/kg, 1 mg/kg
[8] = single oral dose 2 mg/kg, 2 mg/kg
[9] = single oral dose 3 mg/kg, 3 mg/kg

## CC(C)C[C@H]1C(=O)O[C@H](Cc2ccccc2)C(=O)N(C)[C@@H](CC(C)C)C(=O)O[C@H](C)C(=O)N(C)[C@@H](CC(C)C)C(=O)O[C@H](Cc2ccccc2)C(=O)N(C)[C@@H](CC(C)C)C(=O)O[C@H](C)C(=O)N1C [PF 1022 substance]
[1]; oral 1 mg/kg
  EPG At autopsy: 3114
  EPG Before administration: 2447
[1]; oral 5 mg/kg
  EPG At autopsy: 2462
  EPG Before administration: 2458
[1]; oral 10 mg/kg
  EPG At autopsy: 1970
  EPG Before administration: 2332
[2]; single oral dose 0.2 mg/kg
  Mean % Elimination: 18.5%
  Mean % body weight gain: 9.6%
[2]; [5]
  % Elimination: 12.9% and 16.0% and 26.7%
  % Body weight gain: 6.3% and 8.4% and 14.0%
[2]; single oral dose 0.5 mg/kg
  Mean % Elimination: 45.4%
  Mean % body weight gain: 9.2%
[2]; [6]
  % Elimination: 16.4% and 52.1% and 67.7%
  % Body weight gain: 8.2% and 11.5% and 7.8%
[2]; single oral dose 1 mg/kg
  Mean % Elimination: 74.1%
  Mean % body weight gain: 8.7%
[2]; [7]
  % Elimination: 60.0% and 76.1% and 86.2%
  % Body weight gain: 8.2% and 6.6% and 11.2%
[2]; single oral dose 2 mg/kg
  Mean % Elimination: 84.6%
  Mean % body weight gain: 8.9%
[2]; [8]
  % Elimination: 82.1% and 93.5% and 78.3%
  % Body weight gain: 7.8% and 10.5% and 8.4%
[2]; [9]
  % Elimination: 100% and 95.5% and 98.3%
  % Body weight gain: 11.8% and 9.7% and 8.3%
[3]
  elimination: 100%
[3]; 7 days
  roundworms eliminated: six
  roundworms remaining: no roundworms were found remaining
[4]; Day 0
  EPG: 265
  Number of worms eliminated: 0 per 100 g feces
[4]; Day 1
  EPG: 82
  Number of worms eliminated: 82 per 100 g feces
[4]; Day 2
  EPG: 0.6
  Number of worms eliminated: 0 per 100 g feces
[4]; Day 3
  EPG: 0.4
  Number of worms eliminated: 0 per 100 g feces
[4]; Day 4
  EPG: 0
  Number of worms eliminated: 0 per 100 g feces
[4]; Day 5
  EPG: 0
  Number of worms eliminated: 0 per 100 g feces
[4]; Day 6
  EPG: 0.2
  Number of worms eliminated: 0 per 100 g feces
[4]; Day 7
  Number of worms eliminated: 0 per 100 g feces
